Values joined by “and” are separate entries in the source; they are usually repeats but may differ in a detail not shown here. Identical values can stand only once.
Experiments:
[1] = molecular target: T1, UDP-GlcNAc-2-epimerase (GNE) activity of GNE/MNK (Mus musculus, UniProt Q91WG8); test: Colorimetric GNE activity assay in mouse liver cytosol; assay type: biochemical; conditions: 1 mM UDP-GlcNAc, 45 min at 37 °C, read-out: IC50 for inhibiting GNE activity
T1 construct: Analysis of GNE/MNK in mouse liver cytosol; from tissue; host or cells: mouse liver cytosol (supernatant of liver homogenate)
T1 sequence (Q91WG8 1-722): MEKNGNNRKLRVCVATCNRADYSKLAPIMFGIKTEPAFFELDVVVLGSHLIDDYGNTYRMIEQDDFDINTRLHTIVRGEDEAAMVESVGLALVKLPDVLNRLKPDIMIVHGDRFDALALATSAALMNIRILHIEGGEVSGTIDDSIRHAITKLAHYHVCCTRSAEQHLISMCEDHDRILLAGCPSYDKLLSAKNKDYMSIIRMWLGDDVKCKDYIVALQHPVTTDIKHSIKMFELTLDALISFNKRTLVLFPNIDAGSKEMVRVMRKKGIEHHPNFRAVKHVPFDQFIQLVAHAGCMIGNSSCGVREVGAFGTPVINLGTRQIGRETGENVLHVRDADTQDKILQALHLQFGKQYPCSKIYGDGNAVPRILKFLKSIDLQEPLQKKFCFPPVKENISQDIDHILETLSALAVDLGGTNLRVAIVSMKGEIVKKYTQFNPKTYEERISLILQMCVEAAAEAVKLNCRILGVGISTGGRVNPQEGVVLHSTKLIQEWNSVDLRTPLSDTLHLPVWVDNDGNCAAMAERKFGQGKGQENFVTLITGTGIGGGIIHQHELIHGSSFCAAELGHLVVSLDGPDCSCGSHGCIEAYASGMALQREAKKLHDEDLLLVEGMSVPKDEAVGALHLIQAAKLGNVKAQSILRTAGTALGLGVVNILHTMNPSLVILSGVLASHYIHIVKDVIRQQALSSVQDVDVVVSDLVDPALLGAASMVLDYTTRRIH
Text: With the potent diselenide compound 14b in hand, we further studied the binding properties of this potent MNK inhibitor, which is to our knowledge the strongest MNK inhibitor reported to date. Diselenide 14b inhibited MNK activity in a dose dependent manner (Fig. 2A). […] Additionally, we tested if diselenide 14b influenced the GNE activity of the bifunctional GNE/MNK. […] To evaluate the specificity of the inhibitor towards other sugar kinases, we performed further inhibition studies using human GlcNAc kinase (GNK) and hexokinase (HK) from yeast (details in ESI ^†).
Evaluation of the influence of 14b on UDP-GlcNAc-2-epimerase activity
To study, if diselenide 14b interferes with the activity of the GNE domain of the bifunctional enzyme, we used enzymes from mouse liver homogenates. […] The sample was incubated at 37 °C for 20 min and the absorbance was […]

[2] = Stability of the diselenide towards thiol reducing agents, 77Se NMR; assay type: physicochemical
Procedure: At this stage, we also wanted to evaluate the stability of the diselenide 14b in presence of thiol-containing reducing agents like dithiothreitol (DTT) or glutathione (GSH) to address the application of our compounds in living cells. Therefore, the possible reduction of the diselenide bond was monitored by ^77Se NMR using a solution of 60 mM concentration of 14b in an aqueous saturated DTT solution at room temperature. Immediately after the addition of 14b to the DTT solution, a characteristic signal for the selenol compound at –48.1 ppm was observed and a major peak at 294 ppm related to the diselenide. Concretely, the integration of diselenide/selenol peaks gave a 90 : 10 ratio (details in ESI ^†).

CC(=O)N[C@@H]1C(O)O[C@H](C[Se][Se]C[C@H]2OC(O)[C@@H](NC(C)=O)[C@@H](O)[C@@H]2O)[C@@H](O)[C@@H]1O (stereo partly drawn) [Compound 14b]
IC50 [1]: ~200 µM and 182 µM
species detected by 77Se NMR ([2]; 60 mM in aqueous saturated DTT solution, between 15 min and 5 h): only signals from the diselenide were detected
species detected by 77Se NMR ([2]; 60 mM in saturated GSH solution): only diselenide 14b was detected
